Data: ChEMBL document CHEMBL5653615 (J Biol Chem, 2013)

Legend:
[1] = biological target: T1, Mitogen-activated protein kinase kinase kinase kinase 2 (Homo sapiens) (UniProt Q12851); assay: Inhibition of human GCK at 18.6 nM by HotSpot assay relative to control
T1 sequence (whole entry): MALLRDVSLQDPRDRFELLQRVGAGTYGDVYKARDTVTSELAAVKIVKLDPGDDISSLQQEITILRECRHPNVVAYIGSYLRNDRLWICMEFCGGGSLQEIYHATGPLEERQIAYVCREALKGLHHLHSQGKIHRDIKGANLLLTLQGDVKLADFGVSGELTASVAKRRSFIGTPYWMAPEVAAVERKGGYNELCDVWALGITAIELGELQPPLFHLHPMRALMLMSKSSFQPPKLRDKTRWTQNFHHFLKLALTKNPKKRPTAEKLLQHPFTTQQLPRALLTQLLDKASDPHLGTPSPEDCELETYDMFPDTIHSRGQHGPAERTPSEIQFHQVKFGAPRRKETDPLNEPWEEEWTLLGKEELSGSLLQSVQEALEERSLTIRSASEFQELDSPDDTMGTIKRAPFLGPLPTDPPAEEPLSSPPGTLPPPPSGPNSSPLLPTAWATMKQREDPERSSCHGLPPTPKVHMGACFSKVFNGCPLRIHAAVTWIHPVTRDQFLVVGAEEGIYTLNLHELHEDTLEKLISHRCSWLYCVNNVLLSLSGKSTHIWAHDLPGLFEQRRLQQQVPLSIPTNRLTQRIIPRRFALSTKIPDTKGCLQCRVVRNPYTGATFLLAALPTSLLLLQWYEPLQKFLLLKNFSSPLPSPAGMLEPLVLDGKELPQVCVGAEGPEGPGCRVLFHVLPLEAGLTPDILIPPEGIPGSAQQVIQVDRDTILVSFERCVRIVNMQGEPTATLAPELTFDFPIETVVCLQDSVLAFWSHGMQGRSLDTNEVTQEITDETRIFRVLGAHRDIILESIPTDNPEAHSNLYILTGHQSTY

[2] = biological target: CDK9/cyclin T1 (Homo sapiens) (UniProt O60563+P50750); assay: Inhibition of human CDK9/cyclin T1 at 18.6 nM by HotSpot assay relative to control; format: protein-complex assay
[3] = biological target: Tyrosine-protein kinase BTK (Homo sapiens) (UniProt Q06187); assay: Inhibition of human BTK at 18.6 nM by HotSpot assay relative to control
Sequence of Tyrosine-protein kinase BTK (Homo sapiens) (Q06187 whole entry): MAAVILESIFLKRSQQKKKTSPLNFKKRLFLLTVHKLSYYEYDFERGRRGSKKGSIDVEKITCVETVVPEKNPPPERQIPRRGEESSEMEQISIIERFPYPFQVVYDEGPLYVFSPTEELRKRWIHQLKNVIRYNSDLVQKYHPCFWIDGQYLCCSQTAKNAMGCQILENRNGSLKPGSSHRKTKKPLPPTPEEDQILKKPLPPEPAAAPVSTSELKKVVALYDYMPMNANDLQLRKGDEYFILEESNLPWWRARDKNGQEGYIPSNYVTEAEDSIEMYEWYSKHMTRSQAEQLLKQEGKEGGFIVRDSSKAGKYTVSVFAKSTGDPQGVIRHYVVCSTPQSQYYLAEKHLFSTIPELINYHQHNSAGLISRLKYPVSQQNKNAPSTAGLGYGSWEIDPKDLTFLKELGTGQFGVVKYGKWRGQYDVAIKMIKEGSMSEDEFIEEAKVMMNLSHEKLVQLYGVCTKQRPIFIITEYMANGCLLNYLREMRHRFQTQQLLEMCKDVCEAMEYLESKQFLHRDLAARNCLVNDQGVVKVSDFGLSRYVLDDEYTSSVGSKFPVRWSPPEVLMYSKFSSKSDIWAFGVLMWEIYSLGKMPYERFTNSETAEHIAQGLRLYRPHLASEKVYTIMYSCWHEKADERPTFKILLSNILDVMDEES

[4] = biological target: T2, Serine/threonine-protein kinase haspin (Homo sapiens) (UniProt Q8TF76); assay: Inhibition of human Haspin at 18.6 nM by HotSpot assay relative to control
T2 sequence (whole entry): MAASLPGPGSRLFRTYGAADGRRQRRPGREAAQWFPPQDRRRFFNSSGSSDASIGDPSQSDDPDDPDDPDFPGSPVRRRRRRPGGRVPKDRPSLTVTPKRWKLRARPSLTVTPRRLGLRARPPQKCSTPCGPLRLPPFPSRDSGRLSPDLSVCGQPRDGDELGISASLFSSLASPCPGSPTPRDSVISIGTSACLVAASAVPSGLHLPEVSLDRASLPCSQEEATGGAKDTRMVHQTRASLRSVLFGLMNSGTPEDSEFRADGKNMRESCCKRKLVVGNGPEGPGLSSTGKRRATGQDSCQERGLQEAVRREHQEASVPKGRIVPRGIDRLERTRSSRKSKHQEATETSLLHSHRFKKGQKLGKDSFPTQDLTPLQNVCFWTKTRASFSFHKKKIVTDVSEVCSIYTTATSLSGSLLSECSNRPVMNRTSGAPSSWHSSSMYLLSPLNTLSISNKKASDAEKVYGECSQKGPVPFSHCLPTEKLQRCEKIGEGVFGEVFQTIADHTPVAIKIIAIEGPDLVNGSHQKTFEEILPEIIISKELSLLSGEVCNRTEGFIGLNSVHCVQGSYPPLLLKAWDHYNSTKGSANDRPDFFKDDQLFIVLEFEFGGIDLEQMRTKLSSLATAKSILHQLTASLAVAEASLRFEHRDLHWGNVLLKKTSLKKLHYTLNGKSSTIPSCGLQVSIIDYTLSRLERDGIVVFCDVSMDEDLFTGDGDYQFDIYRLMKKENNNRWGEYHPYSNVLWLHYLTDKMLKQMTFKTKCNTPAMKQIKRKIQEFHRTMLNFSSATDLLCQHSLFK

[5] = biological target: STE20/SPS1-related proline-alanine-rich protein kinase (Homo sapiens) (UniProt Q9UEW8); assay: Inhibition of human STLK3 at 18.6 nM by HotSpot assay relative to control
[6] = biological target: T3, NUAK family SNF1-like kinase 2 (Homo sapiens) (UniProt Q9H093); assay: Inhibition of human NUAK2 at 1.82 nM by HotSpot assay relative to control
T3 sequence (whole entry): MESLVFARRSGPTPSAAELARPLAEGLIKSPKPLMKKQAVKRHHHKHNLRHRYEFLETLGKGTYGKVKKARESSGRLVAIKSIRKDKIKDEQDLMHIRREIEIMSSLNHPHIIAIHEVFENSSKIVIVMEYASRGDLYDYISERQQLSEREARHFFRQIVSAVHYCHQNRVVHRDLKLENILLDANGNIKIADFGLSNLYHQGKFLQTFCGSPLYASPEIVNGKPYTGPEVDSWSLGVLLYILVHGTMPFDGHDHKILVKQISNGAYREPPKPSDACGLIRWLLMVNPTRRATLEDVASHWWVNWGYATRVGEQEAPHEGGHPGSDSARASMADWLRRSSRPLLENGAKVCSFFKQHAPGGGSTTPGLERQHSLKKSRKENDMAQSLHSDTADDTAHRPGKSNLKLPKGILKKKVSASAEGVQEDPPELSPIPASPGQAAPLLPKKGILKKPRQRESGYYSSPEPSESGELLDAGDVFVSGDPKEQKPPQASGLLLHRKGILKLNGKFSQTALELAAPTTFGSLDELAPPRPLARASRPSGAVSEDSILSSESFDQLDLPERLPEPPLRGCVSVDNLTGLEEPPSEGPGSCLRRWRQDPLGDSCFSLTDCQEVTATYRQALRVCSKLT

[7] = biological target: Dual specificity protein kinase CLK4 (Homo sapiens) (UniProt Q9HAZ1); conditions: dose 1.82 nM
Sequence of Dual specificity protein kinase CLK4 (Homo sapiens) (Q9HAZ1 whole entry, looked up): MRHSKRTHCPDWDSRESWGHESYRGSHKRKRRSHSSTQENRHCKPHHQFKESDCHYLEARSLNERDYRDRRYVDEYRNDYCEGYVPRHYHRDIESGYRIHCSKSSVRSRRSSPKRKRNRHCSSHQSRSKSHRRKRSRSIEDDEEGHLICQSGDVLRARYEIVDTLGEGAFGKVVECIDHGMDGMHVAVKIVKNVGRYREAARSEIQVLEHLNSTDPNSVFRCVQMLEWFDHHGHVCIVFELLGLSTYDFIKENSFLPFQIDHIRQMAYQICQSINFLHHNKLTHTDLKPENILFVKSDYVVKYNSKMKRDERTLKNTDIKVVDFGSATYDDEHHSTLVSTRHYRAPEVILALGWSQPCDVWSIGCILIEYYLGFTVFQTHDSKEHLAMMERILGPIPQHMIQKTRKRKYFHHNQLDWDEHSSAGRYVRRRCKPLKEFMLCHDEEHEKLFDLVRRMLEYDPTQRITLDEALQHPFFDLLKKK
Description: Inhibition of human CLK4 at 1.82 nM by HotSpot assay relative to control

[8] = biological target: Serine/threonine-protein kinase 10 (Homo sapiens) (UniProt O94804); assay: Inhibition of human LOK at 1.82 nM by HotSpot assay relative to control
Sequence of Serine/threonine-protein kinase 10 (Homo sapiens) (O94804 whole entry, looked up): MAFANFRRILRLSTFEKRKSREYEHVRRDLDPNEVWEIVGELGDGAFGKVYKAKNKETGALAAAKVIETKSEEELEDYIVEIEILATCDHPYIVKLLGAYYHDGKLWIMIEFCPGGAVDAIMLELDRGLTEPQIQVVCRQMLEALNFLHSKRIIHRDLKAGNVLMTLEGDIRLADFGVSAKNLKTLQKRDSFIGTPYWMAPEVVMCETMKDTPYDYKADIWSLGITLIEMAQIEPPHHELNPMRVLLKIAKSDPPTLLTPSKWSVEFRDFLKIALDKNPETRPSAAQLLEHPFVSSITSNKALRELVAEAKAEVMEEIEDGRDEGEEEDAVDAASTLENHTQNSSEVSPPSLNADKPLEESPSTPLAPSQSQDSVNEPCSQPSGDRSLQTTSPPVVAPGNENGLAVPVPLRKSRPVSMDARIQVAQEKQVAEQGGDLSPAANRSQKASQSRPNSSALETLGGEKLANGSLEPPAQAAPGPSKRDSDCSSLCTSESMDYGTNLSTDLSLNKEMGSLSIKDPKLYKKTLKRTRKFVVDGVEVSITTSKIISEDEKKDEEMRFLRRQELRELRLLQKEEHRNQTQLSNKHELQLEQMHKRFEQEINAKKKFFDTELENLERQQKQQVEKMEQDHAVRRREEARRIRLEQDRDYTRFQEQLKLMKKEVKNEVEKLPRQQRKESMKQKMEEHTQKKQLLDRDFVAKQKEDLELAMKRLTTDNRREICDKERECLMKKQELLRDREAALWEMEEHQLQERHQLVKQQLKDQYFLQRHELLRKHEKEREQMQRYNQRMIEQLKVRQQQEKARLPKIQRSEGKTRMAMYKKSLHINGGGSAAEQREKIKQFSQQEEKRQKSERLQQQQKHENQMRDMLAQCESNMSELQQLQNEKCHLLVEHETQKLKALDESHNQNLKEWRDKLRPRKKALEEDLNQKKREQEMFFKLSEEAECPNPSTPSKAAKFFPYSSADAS

Row | Compound | inhibition [1] [%] | inhibition [2] [%] | inhibition [3] [%] | inhibition [4] [%] | inhibition [5] [%] | inhibition [6] [%] | inhibition [7] [%] | inhibition [8] [%]
1 | C[C@]1(O)C[C@@H](c2nc(-c3ccc4ccc(-c5ccccc5)nc4c3)c3c(N)nccn32)C1 | 1.94 | 2.42 | -1.94 | -1.76 | -7.19 |  |  | 
2 | C[C@@]1(C(=O)Nc2ccc(F)nc2)CCCN1c1nc(Nc2cc(C3CC3)n[nH]2)c2cccn2n1 |  |  |  |  |  | 8.18 | -10 | 12
